Activity calls are given as the source filed them. No rule for the calls is given here.

The first experiment is described as follows: Yeast SKN7 toxicity growth rescue counterscreen, Saccharomyces cerevisiae, plate reader, dose confirmatory (AID 624258).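 Also: growth read after three days of incubation at 30 °C; 0% = median of neutral control wells.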 Conditions: S. cerevisiae SKN7-toxicity growth rescue, plate reader; at 6.8 µM (top of the series). In general terms: A counterscreen serves to expose hits that act by an unwanted route or on another target.
As to `CCOC(=O)c1cc2c(=Cc3ccc(N(C)C)cc3)c3ccccc3n2[n+]1C`, the growth rescue activity was -71.9% (inactive). On the same count and under the same terms, with `COc1cccc(C(C)=C2SC(=S)NC2=O)c1` the figure was -39% (inactive). Consider `CCCn1c2ccccc2c2cc(C(=O)O)ccc21`, for which the growth rescue activity was -29.3% (inactive).

Staying with this experiment, now noted: S. cerevisiae SKN7-toxicity growth rescue, plate reader; at 19.5 µM (top of the series).
`C=CCNc1nc(-c2ccccn2)nnc1-c1ccccc1`: the growth rescue activity is -28.2% (inactive). With `CC(=O)N(c1ccccc1)c1ccc([N+](=O)[O-])cc1[N+](=O)[O-]`, the growth rescue activity was -25.3% (inactive). Turning to `COc1ccc(C(C)(C)C)cc1NC(=O)COC(=O)c1ccc([N+](=O)[O-])o1`, the growth rescue activity is -88.2% (inactive). Same read-out and setting: for `CCCS(=O)(=O)c1c(S(=O)(=O)CCC)c2c(C)cccn2c1C(=O)N/N=C/c1cc(O)cc(O)c1` the value was 22.5% (inactive); for `S=C(NC1CCCC1)N1CCN(c2cccc(Cl)c2)CC1`, 13.6% (inactive). The same measure, in the same setting: for `O=C(Nc1nnc(-c2ccccc2)o1)c1ccc(Cl)cc1` the value was -46.1% (inactive); for `CCCCCC1CCC(c2n[nH]c(=S)n2C)CC1` (stereo not given), -58.3% (inactive); for `COC(OC)c1ccc(C#N)c(SCc2ccccc2)n1`, -28.8% (inactive). Turning to `CCCCCCC(Cl)(Cn1ccnc1)c1ccccc1` (stereo not given), the growth rescue activity is -69.6% (inactive). Consider `CN(C)c1ccc(C=c2c3ccccc3n3c2c2c([n+]3C)CCCC2)cc1`, for which the growth rescue activity was -74.1% (inactive). Consider `N#Cc1c(N)nc(SCc2ccccc2)c(C#N)c1-c1ccco1`, for which the growth rescue activity was -27.7% (inactive). Take `Nc1nc(-c2ccccc2)c(-c2ccc([N+](=O)[O-])cc2)s1`: the growth rescue activity was -79.9% (inactive).

On to `Nc1nonc1C(=O)NCCN=Cc1cc(Cc2ccccc2)cc(Br)c1O`, for which the growth rescue activity was -81% (inactive). Still for that read-out and setting: with `Cc1ccc(S(=O)(=O)/N=C2/C=C(C3C(=O)CC(C)(C)CC3=O)C(=O)c3ccccc32)cc1` the figure was 18.5% (inactive); with `Cn1cncc1C#Cc1c(-c2ccsc2)sc2ccccc12`, -77.3% (inactive). As to `CNc1ccc2oc(C[C@H]3O[C@@]4(CC[C@H]3C)O[C@H]([C@H](C)C(=O)c3ccc[nH]3)[C@H](C)C[C@H]4C)nc2c1C(=O)O`, the growth rescue activity is -78.1% (inactive). Regarding `CCC(C)n1ncn(-c2ccc(N3CCN(c4ccc(OCC5COC(Cn6cncn6)(c6ccc(Cl)cc6Cl)O5)cc4)CC3)cc2)c1=O` (stereo not given), the growth rescue activity was -70.7% (inactive). For the compound `Clc1ccccc1C(c1ccccc1)(c1ccccc1)n1ccnc1`, the growth rescue activity was -48.3% (inactive). As for `O=CC1=C(c2ccccc2)Oc2ccccc2O1`, the growth rescue activity was -88.1% (inactive). The same measure, in the same setting: for `CCCCn1c(=O)c(C(=O)NCc2ccncc2)c(O)c2ccccc21` the value was 33% (inactive); for `O=c1cc(CSc2ccc(Cl)cc2)nc(-c2ccccn2)[nH]1`, -48.1% (inactive). The same measure, in the same setting: for `O=C1c2cccc(Cl)c2C(=O)c2c1cccc2N1CCCC1` the value was 11.5% (inactive); for `CC[n+]1c(/C=C/C=C/c2ccc(N(C)C)cc2)sc2ccccc21`, -38.5% (inactive); for `Cc1cc(C)c(C(=O)CC(=O)c2cccnc2)c(C)c1`, -57.9% (inactive). Consider `CCC(Oc1ccc(Br)cc1Cl)C(=O)Nc1nnc(C2CC2)s1` (stereo not given), for which the growth rescue activity was -50.3% (inactive).

As to `COc1ccc(OCC(=O)NNC(=S)NC(=O)C2CCCCC2)cc1`, the growth rescue activity was -64.8% (inactive). As for `CCC(C)Sc1cccc(-c2nc3ccccn3c2NCc2ccccc2)c1` (stereo not given), the growth rescue activity was -90.6% (inactive). On to `CCCCCCCCCCCCCC(=O)NO`, for which the growth rescue activity was -69.6% (inactive). Consider `CC(C)C(=O)NC(c1ccco1)c1ccc2cccnc2c1O` (stereo not given), for which the growth rescue activity is -67.3% (inactive).

Turning to `O=c1c2ccccc2nc(-c2cccc(Cl)c2)n1O`, the growth rescue activity was -66% (inactive). In the case of `O=c1oc(-c2ccccc2)cc(Cl)c1Cl`, the growth rescue activity was -71.1% (inactive). Consider `CC1Oc2ccccc2C=C1/C=N/Nc1ccc(C(=O)O)cc1` (stereo not given), for which the growth rescue activity was -32.7% (inactive). For `COc1ccccc1N1CCN(C(=O)CCNS(=O)(=O)c2ccc(Br)s2)CC1`, the growth rescue activity was 9.41% (inactive).

Consider `CCCCCCCc1ccc(-c2ccc(O)cc2)nc1`, for which the growth rescue activity was -79.8% (inactive). On to `CSc1nc(-c2ccccc2F)c(C#N)c(=O)n1C`, for which the growth rescue activity was 47.9% (inactive). Consider `Cc1cccc2sc(NNC(=O)c3ccc(S(=O)(=O)N4CCCC(C)C4)cc3)nc12` (stereo not given), for which the growth rescue activity is -51.9% (inactive).

As for `CCOC(=O)c1nnn(-c2ccc([N+](=O)[O-])cc2[N+](=O)[O-])c1C`, the growth rescue activity was 17.3% (inactive). Still for that read-out and setting: for `FC(F)(F)c1nc(SCc2ccc(Cl)cc2Cl)n[nH]1` the value was -80.8% (inactive); for `COc1cc([N+](=O)[O-])cc(/C=N/NC(=O)c2cncc(Br)c2)c1O`, -13.3% (inactive); for `CCOC(=O)C1=C(C)NC(=O)C1CC(=O)O` (stereo not given), -16.2% (inactive). As to `CCCCCOc1ccc(CSc2n[nH]c(C)n2)cc1`, the growth rescue activity was -91.3% (inactive). In the case of `Cn1cc(SCC(=O)Nc2nc3ccccc3s2)c2ccccc21`, the growth rescue activity is -62.4% (inactive). For `CCn1c(-c2cc(-c3ccc(C)cc3)nc3ccccc23)n[nH]c1=S`, the growth rescue activity was -24.4% (inactive). As for `C=CCc1cccc(C=Nc2cc(Br)ccc2O)c1O`, the growth rescue activity is -45% (inactive).

On to `S=C(Nc1ccc(Oc2ccccc2)cc1)NC1CCCCCC1`, for which the growth rescue activity is -9.53% (inactive).

In the case of `Nc1cc2nc3ccccc3oc-2cc1=O`, the growth rescue activity is -51.6% (inactive).

`CCc1cc(-c2[nH]ncc2-c2ccc([N+](=O)[O-])cc2)c(O)cc1OC`: the growth rescue activity is -43.8% (inactive). Regarding `O=C(CSc1ccc(-c2ccccn2)nn1)NCc1ccc(Cl)cc1`, the growth rescue activity is -56.5% (inactive). For `COc1cnc(-c2ccccn2)nc1Sc1ccc(C)cc1`, the growth rescue activity was -65.7% (inactive). For the compound `CC(=O)Oc1ccc(OC(C)=O)c(SCCCCCCl)c1`, the growth rescue activity was -46.3% (inactive). As for `CCCn1nc(C(=O)N2CCN(S(=O)(=O)c3ccc(C)c(C)c3)CC2)c2ccccc2c1=O`, the growth rescue activity was -50.4% (inactive). For the compound `CCCCCC1CCC(c2ccc(/C(N)=N/O)cc2)CC1` (stereo not given), the growth rescue activity was -61.8% (inactive). Regarding `O=C(N/N=C/c1cc(Cl)cc([N+](=O)[O-])c1O)c1ccccc1NS(=O)(=O)c1cccs1`, the growth rescue activity is -5.73% (inactive).

As for `Clc1ccccc1CN(Cc1ccco1)Cc1nnnn1C1CCCC1`, the growth rescue activity was -4.89% (inactive). The same measure, in the same setting: with `Cc1ccc(Sc2ccc(NC(=O)CCl)cc2)cc1C` the figure was -34.2% (inactive). Regarding `Cc1ccc(NC(=S)c2nc3ccccc3[nH]2)c(C)c1`, the growth rescue activity was 32.1% (inactive).

Consider `CC(=O)NC(=S)NNC(=O)C(c1ccccc1)c1ccccc1`, for which the growth rescue activity was -30.2% (inactive). As for `c1ccc(-c2ccc(OCCCn3cncn3)cc2)cc1`, the growth rescue activity is -51.8% (inactive). For `COC(=O)c1cccc2c1NC(=O)C2=O`, the growth rescue activity is -14.3% (inactive). For the compound `CCCc1c(C)nn(C(=O)/C(C#N)=N/Nc2ccccc2[N+](=O)[O-])c1C`, the growth rescue activity is -8.75% (inactive). Take `O=S(=O)(Nc1ccc(-n2cccc2)cc1)c1ccc(Cl)c(Cl)c1`: the growth rescue activity was -92.1% (inactive). For the compound `C[C@]12CCC(=O)C=C1CCC1C2CC[C@@]2(C)C1CC[C@]2(C)O` (stereo not given in full), the growth rescue activity is -16.5% (inactive). For the compound `CC(=O)N1CC[n+]2c(-c3ccc(Cl)cc3)csc21`, the growth rescue activity was -24.8% (inactive). For the compound `O=C(CSc1nccn(-c2cccc(F)c2)c1=O)Nc1ccc(Cl)cc1F`, the growth rescue activity was 26.9% (inactive). In the case of `O=C(CSc1ccc(-c2ccccn2)nn1)NCc1ccc(F)cc1`, the growth rescue activity was 1.05% (inactive). Take `O=Nc1c(O)c2ccccc2c2ccccc12`: the growth rescue activity is -91.5% (inactive). For `COc1ccc(O)c(C(=O)CC(=O)c2ccccc2C)c1`, the growth rescue activity was -60.2% (inactive).

For the compound `O=C(CCl)NCCCCCCCCCNC(=O)CCl`, the growth rescue activity was 8.47% (inactive). Regarding `FC(F)(F)c1cccc(N2CCc3cn[nH]c32)c1`, the growth rescue activity was -94.6% (inactive).

As to `CCOc1cc([N+](=O)[O-])cc(/C=N/NC(=O)c2c(-c3ccccc3)noc2C)c1O`, the growth rescue activity was 0.098% (inactive). In the case of `c1ccc(Nc2nc(-c3ccccn3)cs2)cc1`, the growth rescue activity is -0.973% (inactive). For the compound `Cc1ccc(Nc2cc(C)nn2-c2nc(C)cc(C)n2)cc1`, the growth rescue activity was -73.3% (inactive).

Turning to `O=C(COc1ccccc1F)Nc1nc(-c2ccccn2)cs1`, the growth rescue activity is -57.2% (inactive). Same read-out and setting: with `O=S1OC(c2ccccc2)c2cc(Cl)ccc21` (stereo not given) the figure was -14.3% (inactive); with `O/N=C(\c1ccc(Cl)cc1Cl)c1ncc(C(F)(F)F)cc1Cl`, -32.2% (inactive).

As to `CCCCCCCn1c(=O)c(C(=O)OC)c(N)c2ccccc21`, the growth rescue activity was -87.1% (inactive). For the compound `Cc1nn(CCC#N)c(N)c1C1(O)C(=O)Nc2c(Cl)cc(Cl)cc21` (stereo not given), the growth rescue activity is 12.9% (inactive). For the compound `c1ccc(C(=NNc2nc3ccccc3s2)c2ccccn2)cc1`, the growth rescue activity was -69.9% (inactive). Regarding `O=C1c2ccccc2-n2c1nc1ccccc1c2=O`, the growth rescue activity is -48.7% (inactive). Same read-out and setting: for `CC(=O)NC(c1ccc(C)cc1)c1cc([N+](=O)[O-])c2cccnc2c1O` (stereo not given) the value was 61% (inactive); for `Fc1ccc(N2CCN(c3ccc4c(C(F)(F)F)cc(C(F)(F)F)nc4n3)CC2)cc1`, 53.6% (inactive). For `CCCC(C)Sc1nc2c([nH]1)c(=S)n(C)c(=O)n2C` (stereo not given), the growth rescue activity was -31.9% (inactive).

The values above are taken from PubChem BioAssay AID624258 (Broad Institute, 2012).
